Results: patent US12679878B2, “CRF2 receptor agonists and their use in therapy” (SANOFI, priority 2020, dated 2026)
Read-outs that look alike come from different tables or passages of the source. Starred links: 1 amine or outer side, 2 acyl side, 3 side chain; linkers in the order of their positions; H or OH if unused. Non-standard residues stand in square brackets, D forms with d. Residues, ends and D or L forms follow the SMILES beside them. Groups on a side chain read outwards from the residue. *: point of attachment. C18 diacid = O=C(O)CCCCCCCCCCCCCCCCC(=O)*; γGlu = O=C(O)[C@H](CCC(=O)[*:2])N[*:1]; Palmitoyl = CCCCCCCCCCCCCCCC(=O)*; AEEA = NCCOCCOCC(=O)O; Aib = CC(C)(N)C(=O)O

Legend:
[1] = Solubility in buffer systems by UPLC-UV (Example 13); assay type: physicochemical; conditions: pH 4.5, Solubility in Buffer B [mg/ml]
Description: Prior to performing the solubility measurements, the purity of the compounds was determined through UPLC/MS. […] Therefore, solutions from solid samples were prepared in a buffer system with a concentration of 10 mg/mL compound based on the previously determined % purity.
UPLC-UV was performed after 1 hour of gentle agitation from the supernatant, which was obtained after 15 minutes of centrifugation at 2500 RCF (relative centrifugal acceleration). The solubility was determined by the comparison of the UV peak area of a 2 μL-injection of a buffered sample diluted 1:10 with a standard curve of a reference compound with known concentration. The different UV extinction coefficients of sample and reference compound were calculated based on the different amino acid sequences and considered in the concentration calculation.

human CRF2α receptor = target: T1, human CRF2α receptor (Homo sapiens, UniProt Q13324); assay: cAMP agonism at human CRF2 α receptor in TeloHEAC cells (Example 7); assay type: cell-based; conditions: cAMP HTRF, TeloHEAC cells stably expressing human CRF2 α
T1 construct: expressed in transfected cells; host or cells: TeloHEAC
T1 sequence (Q13324 1-411): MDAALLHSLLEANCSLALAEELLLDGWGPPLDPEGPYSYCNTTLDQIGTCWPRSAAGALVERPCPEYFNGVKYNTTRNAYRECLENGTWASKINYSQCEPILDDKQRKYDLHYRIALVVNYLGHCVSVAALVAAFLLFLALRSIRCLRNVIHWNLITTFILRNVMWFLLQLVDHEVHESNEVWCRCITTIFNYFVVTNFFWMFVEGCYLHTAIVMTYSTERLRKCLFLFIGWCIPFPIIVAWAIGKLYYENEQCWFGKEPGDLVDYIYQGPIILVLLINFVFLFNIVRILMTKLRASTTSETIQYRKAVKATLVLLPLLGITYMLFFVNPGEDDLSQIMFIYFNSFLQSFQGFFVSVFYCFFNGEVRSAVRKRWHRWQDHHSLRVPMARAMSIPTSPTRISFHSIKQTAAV
How it was run: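 HTRF ratio 665/620 nm, read 1 h after lysis reagents, reports cAMP. Cells: thawed stocks, 2000/well, 30 min RT with compound in HBSS, 20 mM HEPES, 0 or 0.1% HSA, 2 mM IBMX. Activity normalised to UCN2 1000 nM = 100%; EC50 from half-maximal activation.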

CRF1R receptor = target: T2, CRF1R receptor (Homo sapiens, UniProt P34998); assay: cAMP activity at anti-target CRF1R, CRF1R-overexpression CHO cell line (Example 9); assay type: cell-based; conditions: CRF1R-overexpression CHO cell line; for EC50: 0% HSA; for Emax: read-out: Emax (%)
T2 construct: host or cells: CHO-K1 clone 2
T2 sequence (P34998 24-415): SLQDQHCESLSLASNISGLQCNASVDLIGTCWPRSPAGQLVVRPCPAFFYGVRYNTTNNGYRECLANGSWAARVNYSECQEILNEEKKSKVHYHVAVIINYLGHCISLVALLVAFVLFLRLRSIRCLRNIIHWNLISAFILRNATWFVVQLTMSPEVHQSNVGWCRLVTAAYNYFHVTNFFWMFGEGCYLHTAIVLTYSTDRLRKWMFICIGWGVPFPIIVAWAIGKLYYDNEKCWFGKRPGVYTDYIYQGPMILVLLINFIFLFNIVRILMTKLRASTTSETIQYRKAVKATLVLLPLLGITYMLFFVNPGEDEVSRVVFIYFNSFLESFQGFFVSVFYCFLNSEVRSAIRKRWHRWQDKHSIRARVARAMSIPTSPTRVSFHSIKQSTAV
How it was run: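 Using thawed CRF1R-overexpressing CHO cells at 2000 per well, compound is applied for 30 min at RT in HBSS/HEPES buffer with IBMX. Cellular cAMP content is determined via HTRF, and percent activity is calculated against 1000 nM UCN2 defined as 100%.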

rat CRF2R α receptor = assay: cAMP agonism at rat CRF2R α receptor in A7R5 rat aortic smooth muscle cells (Example 8); assay type: cell-based; conditions: cAMP HTRF, A7R5 rat aortic smooth muscle cell line, 0% HSA
How it was run: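 Potency (EC50) is the concentration reaching half-maximal activation, with responses scaled so that 1000 nM urocortin 2 equals 100%. Intracellular cAMP was quantified by homogeneous time-resolved fluorescence at 665/620 nm, 1 h after lysis-buffer reagents. Compound stimulation lasted 30 min at room temperature on 2000 IBMX-treated (2 mM) cells per well in HEPES-buffered HBSS.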

[2] = 0% HSA, read-out: EC50 [nM], 0% HSA
[3] = 0.1% HSA, read-out: EC50 [nM], 0.1% HSA

solubility at 1 h [1] | EC50 (human CRF2α receptor; [2]) | EC50 (human CRF2α receptor; [3]) | EC50 (CRF1R receptor) | Emax (CRF1R receptor) | EC50 (rat CRF2R α receptor) | SMILES
> 7600 µg/mL | 0.01 nM | 0.01 nM | – | – | – | CCCCCCCCCCCCCCCC(=O)N[C@@H](CCC(=O)NCCCC[C@H](NC(=O)[C@H](CC(C)C)NC(=O)[C@H](CCCCN)NC(=O)[C@@H](NC(=O)[C@@H]1CCCN1C(=O)[C@@H](NC(=O)[C@H](CC(=O)O)NC(=O)[C@H](CC(C)C)NC(=O)[C@H](CO)NC(=O)[C@H](CC(C)C)NC(=O)[C@@H](NC(=O)[C@@H](N)[C@@H](C)CC)C(C)C)C(C)C)[C@@H](C)CC)C(=O)N[C@@H](CCCCN)C(=O)N[C@H](C(=O)N[C@@H](CC(C)C)C(=O)N[C@@H](CC(C)C)C(=O)N[C@@H](CCC(=O)O)C(=O)N[C@@H](CCC(N)=O)C(=O)N[C@@H](CCC(=O)O)C(=O)N[C@@H](CCCCN)C(=O)N[C@@H](CCC(N)=O)C(=O)N[C@@H](CCC(=O)O)C(=O)N[C@@H](CCCCN)C(=O)N[C@@H](CCC(=O)O)C(=O)N[C@@H](CCCCN)C(=O)N[C@@H](CCC(N)=O)C(=O)N[C@@H](CCC(N)=O)C(=O)N[C@@H](C)C(=O)N[C@@H](CCC(=O)O)C(=O)N[C@H](C(=O)N[C@@H](CC(N)=O)C(=O)N[C@@H](C)C(=O)N[C@@H](CCC(N)=O)C(=O)N[C@H](C(=O)N[C@@H](CC(C)C)C(=O)N[C@@H](C)C(=O)N[C@@H](CCC(N)=O)C(=O)N[C@H](C(N)=O)C(C)C)[C@@H](C)CC)[C@@H](C)O)[C@@H](C)CC)C(=O)O [compound 2] (H-IVLSLDVPIKLK([γGlu-Palmitoyl])KILLEQEKQEKEKQQAETNAQILAQV-NH2; N-terminus assumed)
– | 0.11 nM | 4.28 nM | > 1000 nM | -0.34% | 1.02 nM | CC[C@H](C)[C@H](N)C(=O)N[C@H](C(=O)N[C@@H](CC(C)C)C(=O)N[C@@H](CO)C(=O)N[C@@H](CC(C)C)C(=O)N[C@@H](CC(=O)O)C(=O)N[C@H](C(=O)N1CCC[C@H]1C(=O)N[C@H](C(=O)N[C@@H](CCCCN)C(=O)N[C@@H](CC(C)C)C(=O)N[C@@H](CCCCNC(=O)COCCOCCNC(=O)COCCOCCNC(=O)CC[C@H](NC(=O)CCCCCCCCCCCCCCCCC(=O)O)C(=O)O)C(=O)N[C@@H](CCCCN)C(=O)N[C@H](C(=O)N[C@@H](CC(C)C)C(=O)N[C@@H](CC(C)C)C(=O)N[C@@H](CCCCN)C(=O)N[C@@H](CCC(N)=O)C(=O)N[C@@H](CCC(=O)O)C(=O)N[C@@H](CCCNC(=N)N)C(=O)N[C@@H](CCC(N)=O)C(=O)N[C@@H](CCCCN)C(=O)N[C@@H](CCCCN)C(=O)NC(C)(C)C(=O)N[C@@H](CCCNC(=N)N)C(=O)N[C@@H](CCC(=O)O)C(=O)N[C@@H](CCC(N)=O)C(=O)N[C@@H](C)C(=O)N[C@@H](CCC(=O)O)C(=O)N[C@H](C(=O)N[C@@H](CC(N)=O)C(=O)N[C@@H](CCCCN)C(=O)N[C@@H](CCC(N)=O)C(=O)N[C@H](C(=O)N[C@@H](CC(C)C)C(=O)N[C@@H](CCC(=O)O)C(=O)N[C@@H](CCCNC(=N)N)C(=O)N[C@H](C(N)=O)C(C)C)[C@@H](C)CC)[C@@H](C)O)[C@@H](C)CC)[C@@H](C)CC)C(C)C)C(C)C [compound 101] (H-IVLSLDVPIKLK([AEEA-AEEA-γGlu-C18 diacid])KILLKQERQKK[Aib]REQAETNKQILERV-NH2; N-terminus assumed)
– | 0.18 nM | 8.17 nM | > 1000 nM | 4.54% | 2.53 nM | CC[C@H](C)[C@H](N)C(=O)N[C@H](C(=O)N[C@@H](CC(C)C)C(=O)N[C@@H](CO)C(=O)N[C@@H](CC(C)C)C(=O)N[C@@H](CC(=O)O)C(=O)N[C@@H](C(=O)N1CCC[C@H]1C(=O)N[C@H](C(=O)NCC(=O)N[C@@H](CC(C)C)C(=O)N[C@@H](CCCCNC(=O)COCCOCCNC(=O)COCCOCCNC(=O)CC[C@H](NC(=O)CCCCCCCCCCCCCCCCC(=O)O)C(=O)O)C(=O)N[C@@H](CCC(N)=O)C(=O)N[C@H](C(=O)N[C@@H](CC(C)C)C(=O)N[C@@H](CC(C)C)C(=O)N[C@@H](CCCCN)C(=O)N[C@@H](CCC(N)=O)C(=O)N[C@@H](CCC(=O)O)C(=O)N[C@@H](CCCNC(=N)N)C(=O)N[C@@H](CCC(N)=O)C(=O)N[C@@H](CCCCN)C(=O)N[C@@H](CCCCN)C(=O)NC(C)(C)C(=O)N[C@@H](CCCNC(=N)N)C(=O)N[C@@H](CCC(=O)O)C(=O)N[C@@H](CCC(N)=O)C(=O)N[C@@H](C)C(=O)N[C@@H](CCC(=O)O)C(=O)N[C@H](C(=O)N[C@@H](CC(N)=O)C(=O)N[C@@H](CCCCN)C(=O)N[C@@H](CCC(N)=O)C(=O)N[C@H](C(=O)N[C@@H](CC(C)C)C(=O)N[C@@H](C)C(=O)N[C@@H](CCC(N)=O)C(=O)N[C@H](C(N)=O)C(C)C)[C@@H](C)CC)[C@@H](C)O)[C@@H](C)CC)[C@@H](C)CC)C(C)C)C(C)C [compound 147] (H-IVLSLD[dV]PIGLK([AEEA-AEEA-γGlu-C18 diacid])QILLKQERQKK[Aib]REQAETNKQILAQV-NH2; N-terminus assumed)
– | 0.08 nM | 3.87 nM | > 1000 nM | 9.07% | 0.49 nM | CC[C@H](C)[C@H](N)C(=O)N[C@H](C(=O)N[C@@H](CC(C)C)C(=O)N[C@@H](CO)C(=O)N[C@@H](CC(C)C)C(=O)N[C@@H](CC(=O)O)C(=O)N[C@@H](C(=O)N1CCC[C@H]1C(=O)N[C@H](C(=O)NCC(=O)N[C@@H](CC(C)C)C(=O)N[C@@H](CCCCNC(=O)COCCOCCNC(=O)COCCOCCNC(=O)CC[C@H](NC(=O)CCCCCCCCCCCCCCCCC(=O)O)C(=O)O)C(=O)N[C@@H](CCC(N)=O)C(=O)N[C@H](C(=O)N[C@@H](CC(C)C)C(=O)N[C@@H](CC(C)C)C(=O)N[C@@H](CCCCN)C(=O)N[C@@H](CCC(N)=O)C(=O)N[C@@H](CCC(=O)O)C(=O)N[C@@H](CCCNC(=N)N)C(=O)N[C@@H](CCC(N)=O)C(=O)N[C@@H](CCCCN)C(=O)N[C@@H](CCCCN)C(=O)NC(C)(C)C(=O)N[C@@H](CCCNC(=N)N)C(=O)N[C@@H](CCC(=O)O)C(=O)N[C@@H](CCC(N)=O)C(=O)N[C@@H](C)C(=O)N[C@@H](CCC(=O)O)C(=O)N[C@@H](CCCCN)C(=O)N[C@@H](CC(N)=O)C(=O)N[C@@H](CCCCN)C(=O)N[C@@H](CCCNC(=N)N)C(=O)N[C@H](C(=O)N[C@@H](CC(C)C)C(=O)N[C@@H](CCC(=O)O)C(=O)N[C@@H](CCCNC(=N)N)C(=O)N[C@H](C(N)=O)C(C)C)[C@@H](C)CC)[C@@H](C)CC)[C@@H](C)CC)C(C)C)C(C)C [compound 151] (H-IVLSLD[dV]PIGLK([AEEA-AEEA-γGlu-C18 diacid])QILLKQERQKK[Aib]REQAEKNKRILERV-NH2; N-terminus assumed)
